Test results as given in US20170283440A1, “CARM1 INHIBITORS AND USES THEREOF” (Epizyme, Inc., priority 2014, published 2017).

Key:
[1] = molecular target: T1, Human CARM1 (PRMT4) (Homo sapiens, UniProt Q86X55); assay: CARM1 enzyme assay on peptide substrate (3H-SAM Flashplate); format: biochemical; conditions: CARM1 0.25 nM, 3H-SAM 30 nM, peptide 250 nM; read-out: Biochem IC50
T1 construct: Flag-CARM1-His was eluted with 200 ug/ml FLAG peptide in buffer A; made in house; host or cells: HEK 293F cells infected with recombinant baculovirus (pFastBacMam)
T1 sequence (Q86X55 other isoform, or with tags, fused parts or gaps): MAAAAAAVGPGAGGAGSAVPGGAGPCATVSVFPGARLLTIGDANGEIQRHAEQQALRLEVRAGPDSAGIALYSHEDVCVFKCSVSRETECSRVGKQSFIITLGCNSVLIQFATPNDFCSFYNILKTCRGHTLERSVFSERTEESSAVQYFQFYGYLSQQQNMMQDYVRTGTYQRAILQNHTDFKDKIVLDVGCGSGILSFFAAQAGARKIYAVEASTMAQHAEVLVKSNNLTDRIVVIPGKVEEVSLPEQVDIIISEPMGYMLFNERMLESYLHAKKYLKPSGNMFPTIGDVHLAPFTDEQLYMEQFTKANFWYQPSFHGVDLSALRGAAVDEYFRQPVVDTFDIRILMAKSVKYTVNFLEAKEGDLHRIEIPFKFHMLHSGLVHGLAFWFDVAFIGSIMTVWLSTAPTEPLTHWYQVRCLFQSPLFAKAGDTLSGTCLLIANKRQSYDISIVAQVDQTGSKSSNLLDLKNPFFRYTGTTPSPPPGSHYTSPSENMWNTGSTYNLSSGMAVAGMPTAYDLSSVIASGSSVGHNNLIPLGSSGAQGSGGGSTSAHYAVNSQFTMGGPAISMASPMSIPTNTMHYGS
From the text: S-adenosylmethionine (SAM), S-adenosylhomocysteine (SAH), bicine, Tween20, dimethylsulfoxide (DMSO), bovine skin gelatin (BSG), sodium butyrate and Tris(2-carboxyethyl)phosphine hydrochloride solution (TCEP) were purchased from Sigma-Aldrich at the highest level of purity possible. ^3H-SAM was purchase from American Radiolabeled Chemicals with a specific activity of 80 Ci/mmol. 384-well streptavidin Flashplates were purchased from PerkinElmer.
Peptide representative of human histone H3 residues 16-30 was synthesized with an N-terminal linker-affinity tag motif and a C-terminal amide cap by 21st Century Biochemicals. The peptide was purified by high-performance liquid chromatography (HPLC) to greater than 95% purity and confirmed by liquid chromatography mass spectrometry (LC-MS). The sequence was Biot-Ahx-[…]-amide and contained a monomethylated arginine at position 26 (SEQ ID NO.:1).
Human CARM1 (PRMT4) (NM_199141.1) transcript clone was amplified from an HEK 293 cDNA library, incorporating a flanking 5′ sequence encoding a FLAG tag ([…]) (SEQ ID NO.:2) fused directly to Ala 2 of CARM1 and 3′ sequence encoding a hexa His sequence ([…]) (SEQ ID NO.:3) fused directly to Ser 608. The gene sequence encoding isoform1 containing a deletion of amino acids 539-561 was amplified subsequently and subcloned into pFastBacMam (Viva Biotech).
Recombinant baculovirus were generated according to Bac-to-Bac kit instructions (Life Technologies). Protein over-expression was accomplished by infecting exponentially growing HEK 293F cell culture at 1.3×10^6 cell/ml with virus (MOI=10) in the presence of 8 mM sodium butyrate. Infections were carried out at 37° C. for 48 hours, harvested by centrifugation, and stored at −80° C. for purification.
Column was washed with 500 mM NaCl in buffer A and Flag-CARM1-His was eluted with 200 ug/ml FLAG peptide in buffer A. Pooled fractions were dialyzed in 20 mM Tris, 150 mM NaCl, 5% glycerol and 1 mM DTT, pH 7.8. The purity of recovered protein was 94.
The assays were all performed in a buffer consisting of 20 mM Bicine (pH=7.6), 1 mM TCEP, 0.005% BSG, and 0.002% Tween 20, prepared on the day of use. Compounds in 100% DMSO (1 ul) were spotted into a polypropylene 384-well V-bottom plates (Greiner) using a Platemate Plus outfitted with a 384-channel head (Thermo Scientific). DMSO (1 ul) was added to Columns 11, 12, 23, 24, rows A-H for the maximum signal control and 1 ul of SAH, a known product and inhibitor of CARM1, was added to columns 11, 12, 23, 24, rows I—P for the minimum signal control. A cocktail (40 ul) containing the CARM1 enzyme was added by Multidrop Combi (Thermo-Fisher). The compounds were allowed to incubate with CARM1 for 30 min at room temperature, then a cocktail (10 ul) containing ^3H-SAM and peptide was added to initiate the reaction (final volume=51 ul). The final concentrations of the components were as follows: CARM1 was 0.25 nM, ^3H-SAM was 30 nM, peptide was 250 nM, SAH in the minimum signal control wells was 1 mM, and the DMSO concentration was 2%. The assays were stopped by the addition of non-radiolabeled SAM (10 ul) to a final concentration of 300 uM, which dilutes the ^3H-SAM to a level where its incorporation into the peptide substrate is no longer detectable. 50 ul of the reaction in the 384-well polypropylene plate was then transferred to a 384-well Flashplate and the biotinylated peptides were allowed to bind to the streptavidin surface for at least 1 hour before being washed once with 0.1% Tween20 in a Biotek ELx405 plate washer. The plates were then read in a PerkinElmer TopCount plate reader to measure the quantity of ^3H-labeled peptide bound to the Flashplate surface, measured as disintegrations per minute (dpm) or alternatively, referred to as counts per minute (cpm).
where dpm=disintegrations per minute, cmpd=signal in assay well, and min and max are the respective minimum and maximum signal controls. […]

[2] = tested on: asymmetric di-methyl PABP1 in RKO cells; assay: RKO methylation assay (In Cell Western for asymmetric di-methyl PABP1); format: cell-based; conditions: Homo sapiens, 48 hours incubation, read-out: Cellular IC50
Outline: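 RKO cells treated 48 h at 37 °C, then fixed, methanol-permeabilized and probed for asymmetric di-methyl PABP1 (16 h, 4 °C) with DRAQ5 counterstain; 800/700 nm intensity ratio read.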

| SMILES | IC50 [1] | IC50 [2] |
| --- | --- | --- |
| CNCC(O)COc1cc(Cl)cc(-c2cc(NC3CCOCC3)n3ncc(C(C)C)c3n2)c1 (stereo not drawn) [Example 39-6] | < 100 nM | > 20000 nM |
| CNCC(O)COc1cc(C#N)cc(-c2cc(NC3CCOCC3)c3cnn(C(C)C)c3n2)c1 (stereo not drawn) [Example 11-4] | 100 to 1000 nM | > 20000 nM |
| CNCC(O)COc1cc(Cl)cc(-c2cc(N3CCOC3=O)n3ncc(C(C)C)c3n2)c1 (stereo not drawn) [Example 26-6] | 100 to 1000 nM | > 20000 nM |
| COc1cc(OCC(O)CN)cc(-c2cc(N(C3CCOCC3)C3CC3)n3ncc(C(C)C)c3n2)c1 (stereo not drawn) [Example 13-8] | 100 to 1000 nM | > 20000 nM |
| CNCC(O)COc1cc(Cl)cc(-c2cc(NC3CCOC3)n3ncc(C(C)C)c3n2)c1 (stereo not drawn) [Example 28-6] | < 100 nM | > 20000 nM |
| CNCC(O)COc1cc(OC)cc(-c2cc(Nc3cncnc3)c3cnn(C(C)C)c3n2)c1 (stereo not drawn) [Example 10-4] | < 100 nM | > 20000 nM |
| CC(C)n1ncc2c(N3CCOCC3)cc(-c3cccc(NCC(O)CN)c3)nc21 (stereo not drawn) [Example 28-9] | 100 to 1000 nM | > 20000 nM |
| CCc1cc(OCC(O)CNC)cc(-c2cc(N3CCOCC3)n3ncc(C(C)C)c3n2)c1 (stereo not drawn) [Example 20-6] | 100 to 1000 nM | > 20000 nM |
| CNCC(O)COc1cc(OC)cc(-c2cc(N(C)C3CCOCC3)c3c(C)nn(C(C)C)c3n2)c1 (stereo not drawn) [Example 25-4] | < 100 nM | 10000 to 20000 nM |
| CNCC(O)COc1cccc(-c2cc(C(=O)NCc3c(C)cc(C)[nH]c3=O)c3cnn(C(C)C)c3n2)c1 (stereo not drawn) [Example 1-3] | < 100 nM | > 20000 nM |
| CC(C)n1ncc2c(C(=O)NCC3CCOCC3)cc(-c3cccc(OCC(O)CN)c3)nc21 (stereo not drawn) [Example 3-3] | 100 to 1000 nM | > 20000 nM |
| CNCC(O)COc1cccc(-c2cc(NC3CCOCC3)c3c(C4CC4)nn(C(C)C)c3n2)c1 (stereo not drawn) [Example 2-2] | < 100 nM | > 20000 nM |
| CNCC(O)COc1cccc(-c2cc(NC3CCOCC3)n3ncc(C(C)(C)C)c3n2)c1 (stereo not drawn) [Example 19-6] | < 100 nM | > 20000 nM |
| CNCC(O)COc1cc(Cl)cc(-c2cc(N(C)C3CCOCC3)n3ncc(C(C)(C)C)c3n2)c1 (stereo not drawn) [Example 9-9] | 100 to 1000 nM | > 20000 nM |
| CC(C)(C)c1cnn2c(NC3CCOCC3)cc(-c3cccc(OCC(O)CN)c3)nc12 (stereo not drawn) [Example 12-8] | < 100 nM | > 20000 nM |
| CNCC(O)COc1cccc(-c2cc(NCc3c(C)cc(C)nc3OC)c3cnn(C(C)C)c3n2)c1 (stereo not drawn) [Example 6-9] | < 100 nM | > 20000 nM |
| CNCC(O)COc1cccc(-c2cc(N(C)C3CCOCC3)nc(N3CCOCC3)n2)c1 (stereo not drawn) [Example 4-9] | < 100 nM | > 20000 nM |
| CNCC(O)COc1cc(OC(F)(F)F)cc(-c2cc(NC3CCOCC3)c3cnn(C(C)C)c3n2)c1 (stereo not drawn) [Example 28-4] | 100 to 1000 nM | > 20000 nM |
| CNCC(O)COc1cccc(-c2nc(NCc3cccc4ccnn34)c3cnn(C4CC4)c3n2)c1 (stereo not drawn) [Example 14-9] | 100 to 1000 nM | > 20000 nM |
| CNCC(O)COc1cccc(-c2nc(NCc3cn4ccsc4n3)c3cnn(C4CC4)c3n2)c1 (stereo not drawn) [Example 43-5] | < 100 nM | > 20000 nM |
| CNCC(O)COc1cc(Cl)cc(-c2cc(NC3CCOC3)c3cnn(C(C)C)c3n2)c1 (stereo not drawn) [Example 9-4] | < 100 nM | > 20000 nM |
| NCC(O)COc1cccc(-c2nc(NCc3ccncc3)c3cnn(C4CC4)c3n2)c1 (stereo not drawn) [Example 12-5] | 100 to 1000 nM | > 20000 nM |
| CNCC(O)COc1cccc(-c2cc(NC3CCOCC3)c3c(C#N)nn(C(C)C)c3n2)c1 (stereo not drawn) [Example 5-2] | 100 to 1000 nM | > 20000 nM |

| SMILES | IC50 [1] | IC50 [2] |
| --- | --- | --- |
| Cc1cc(C)c(CNC(=O)c2cc(-c3cccc(OCC(O)CN)c3)nc3c2cnn3C(C)C)c(=O)[nH]1 (stereo not drawn) [Example 2-8] | < 100 nM | > 20000 nM |
| CNCC(O)COc1cc(OC)cc(-c2cc(N[C@H]3CCOC3)n3ncc(C(C)C)c3n2)c1 (stereo partly drawn) [Example 23-6] | < 100 nM | > 20000 nM |
| CCOC(=O)c1c(-c2cccc(OCC(O)CNC)c2)nc2c(cnn2C(C)C)c1N1CCOCC1 (stereo not drawn) [Example 1-5] | 100 to 1000 nM | > 20000 nM |
| CNCC(O)COc1cc(OC)cc(-c2cc(N(C)c3cncnc3)c3cnn(C(C)C)c3n2)c1 (stereo not drawn) [Example 3-4] | < 100 nM | 10000 to 20000 nM |
| CC(C)n1ncc2c(N3CCOCC3)cc(-c3cccc(OC[C@H](O)CN)c3)nc21 [Example 1-8] | < 100 nM | 10000 to 20000 nM |
| CNCC(O)COc1cc(OC)cc(-c2cc(-c3cnc4[nH]ccc4c3)c3cnn(C(C)C)c3n2)c1 (stereo not drawn) [Example 5-9] | < 100 nM | > 20000 nM |
| CNCC(O)COc1cccc(-c2cc(N3CCOCC3)c3c(C)nn(C(C)C)c3n2)c1 (stereo not drawn) [Example 3-2] | < 100 nM | 10000 to 20000 nM |
| CNCC(O)COc1cc(OC)cc(-c2cc(C)n3ncc(C(C)C)c3n2)c1 (stereo not drawn) [Example 5-6] | < 100 nM | > 20000 nM |
| CC(C)n1ncc2c(NS(=O)(=O)N(C)C)cc(-c3cccc(OCC(O)CN)c3)nc21 (stereo not drawn) [Example 24-9] | 100 to 1000 nM | > 20000 nM |
| CNCC(O)COc1cccc(-c2cc(NCCCCCCNC(=O)c3ccn(C)n3)c3cnn(C(C)C)c3n2)c1 (stereo not drawn) [Example 66-1] | < 100 nM | > 20000 nM |
| NCC(O)COc1cccc(-c2nc(NCc3cccnc3)c3cnn(C4CC4)c3n2)c1 (stereo not drawn) [Example 11-5] | 100 to 1000 nM | > 20000 nM |
| CNCC(O)COc1cc(OC(C)C)cc(-c2cc(N3CCOCC3)c3cnn(C(C)C)c3n2)c1 (stereo not drawn) [Example 21-4] | < 100 nM | > 20000 nM |
| CNCC(O)COc1cccc(-c2cc(N(C)C3CCOCC3)c3c(C)nn(C(C)C)c3n2)c1 (stereo not drawn) [Example 6-2] | < 100 nM | 10000 to 20000 nM |
| CNCC(O)COc1cccc(-c2cc(N[C@H]3CCOC3)n3ncc(C(C)C)c3n2)c1 (stereo partly drawn) [Example 10-6] | < 100 nM | > 20000 nM |
| C=Cc1cc(OCC(O)CNC)cc(-c2cc(NC3CCOCC3)n3ncc(C(C)C)c3n2)c1 (stereo not drawn) [Example 33-6] | 100 to 1000 nM | > 20000 nM |
| CC(C)(C)c1cnn2c(NC3CCOCC3)cc(-c3cc(Cl)cc(OCC(O)CN)c3)nc12 (stereo not drawn) [Example 15-8] | 100 to 1000 nM | > 20000 nM |
| Cc1cc(C)c(CNC(=O)c2cc(-c3cccc(OCC(O)CN)c3)nc3nn(C(C)C)cc23)c(=O)[nH]1 (stereo not drawn) [Example 29-9] | 100 to 1000 nM | > 20000 nM |
| CNCC(O)COc1cccc(-c2nc(NCc3ccncc3)c3cnn(C4CC4)c3n2)c1 (stereo not drawn) [Example 21-5] | 100 to 1000 nM | > 20000 nM |
| CNCC(O)COc1cccc(-c2nc(N(C)C3CCOCC3)c3cnn(C(C)(C)C)c3n2)c1 (stereo not drawn) [Example 36-5] | < 100 nM | > 20000 nM |
| CNCC(O)COc1cccc(-c2nc(NC3CCOCC3)c3cnn(C(C)(C)C)c3n2)c1 (stereo not drawn) [Example 30-5] | < 100 nM | 5000 to 10000 nM |
| CNCC(O)COc1cc(Cl)cc(-c2cc(N(C)CCOC)n3ncc(C(C)C)c3n2)c1 (stereo not drawn) [Example 30-6] | < 100 nM | > 20000 nM |
| C=Cc1cc(OCC(O)CNC)cc(-c2cc(N3CCOCC3)n3ncc(C(C)C)c3n2)c1 (stereo not drawn) [Example 17-6] | 100 to 1000 nM | > 20000 nM |
